Test results published in paper PMC4450297, “Screening Active Compounds from Garcinia Species Native to China Reveals Novel Compounds Targeting the STAT/JAK Signaling Pathway” (BioMed Research International, 2015).

test system: NCI-H2405; test: Cell panel screen (CellTiter-Glo); assay type: cell-based, human; details: NCI-H2405 (Lung), 20 micromolar, 72 hrs
How it was run: (§1)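 Single-concentration screen: 20 μM compound, 72 h, versus DMSO-only untreated cells. Viability read by CellTiter-Glo luminescence; % inhibition = (untreated − treated)/(untreated − no-cell background) × 100. Cells grown in recommended media plus 10% FBS at 37° C.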

**Q.** Which “Percent Inhibition” value does the source give for `C=C(C)C(O)Cc1c(O)cc2oc3cc(O)c(O)c(CC=C(C)C)c3c(=O)c2c1O` (stereo not drawn) [bn-17, Bannaxanthone B] here?
**A.** 7%

test system: MSTO-211-H; test: Cell panel screen (CellTiter-Glo); assay type: cell-based, human; details: MSTO-211-H (Lung), 20 micromolar, 72 hrs
How it was run: as §1

**Q.** With `C=C(C)C(O)Cc1c(O)cc2oc3cc(O)c(O)c(CC=C(C)C)c3c(=O)c2c1O` (stereo not drawn) [bn-17, Bannaxanthone B] as the compound, how does the “Percent Inhibition” value read?
**A.** 70%

test system: HCC1937; test: Cell panel screen (CellTiter-Glo); assay type: cell-based, human; details: HCC1937 (Breast), 20 micromolar, 72 hrs
How it was run: as §1

**Q.** Which “Percent Inhibition” value does the source give for `C=C(C)C(O)Cc1c(O)cc2oc3cc(O)c(O)c(CC=C(C)C)c3c(=O)c2c1O` (stereo not drawn) [bn-17, Bannaxanthone B] here?
**A.** 58%

test system: HT-1197; test: Cell panel screen (CellTiter-Glo); assay type: cell-based, human; details: HT-1197 (Urinary bladder), 20 micromolar, 72 hrs
How it was run: as §1

**Q.** How did the “Percent Inhibition” value turn out when `C=C(C)C(O)Cc1c(O)cc2oc3cc(O)c(O)c(CC=C(C)C)c3c(=O)c2c1O` (stereo not drawn) [bn-17, Bannaxanthone B] was run?
**A.** 44%

test system: CCF-STTG1; test: Cell panel screen (CellTiter-Glo); assay type: cell-based, human; details: CCF-STTG1 (Brain), 20 micromolar, 72 hrs
How it was run: as §1

**Q.** `C=C(C)C(O)Cc1c(O)cc2oc3cc(O)c(O)c(CC=C(C)C)c3c(=O)c2c1O` (stereo not drawn) [bn-17, Bannaxanthone B] was tested. Which “Percent Inhibition” value did it give?
**A.** 43%

test system: CW-2; test: Cell panel screen (CellTiter-Glo); assay type: cell-based, human; details: CW-2 (Colon), 20 micromolar, 72 hrs
How it was run: as §1

**Q.** Which “Percent Inhibition” value does the source give for `C=C(C)C(O)Cc1c(O)cc2oc3cc(O)c(O)c(CC=C(C)C)c3c(=O)c2c1O` (stereo not drawn) [bn-17, Bannaxanthone B] here?
**A.** 68%

test system: Bel-7402; test: Cell panel screen (CellTiter-Glo); assay type: cell-based, human; details: Bel-7402 (Liver), 20 micromolar, 72 hrs
How it was run: as §1

**Q.** For `C=C(C)C(O)Cc1c(O)cc2oc3cc(O)c(O)c(CC=C(C)C)c3c(=O)c2c1O` (stereo not drawn) [bn-17, Bannaxanthone B], which “Percent Inhibition” value is on record?
**A.** 57%

test system: RL95; test: Cell panel screen (CellTiter-Glo); assay type: cell-based, human; details: RL95 (Uterus), 20 micromolar, 72 hrs
How it was run: as §1

**Q.** For `C=C(C)C(O)Cc1c(O)cc2oc3cc(O)c(O)c(CC=C(C)C)c3c(=O)c2c1O` (stereo not drawn) [bn-17, Bannaxanthone B], which “Percent Inhibition” value is on record?
**A.** 45%

test system: NCI-H524; test: Cell panel screen (CellTiter-Glo); assay type: cell-based, human; details: NCI-H524 (Lung), 20 micromolar, 72 hrs
How it was run: as §1

**Q.** For `C=C(C)C(O)Cc1c(O)cc2oc3cc(O)c(O)c(CC=C(C)C)c3c(=O)c2c1O` (stereo not drawn) [bn-17, Bannaxanthone B], which “Percent Inhibition” value is on record?
**A.** -19%

test system: NCI-H2347; test: Cell panel screen (CellTiter-Glo); assay type: cell-based, human; details: NCI-H2347 (Lung), 20 micromolar, 72 hrs
How it was run: as §1

**Q.** Which “Percent Inhibition” value does the source give for `C=C(C)C(O)Cc1c(O)cc2oc3cc(O)c(O)c(CC=C(C)C)c3c(=O)c2c1O` (stereo not drawn) [bn-17, Bannaxanthone B] here?
**A.** 23%

test system: NCI-H1623; test: Cell panel screen (CellTiter-Glo); assay type: cell-based, human; details: NCI-H1623 (Lung), 20 micromolar, 72 hrs
How it was run: as §1

**Q.** For `C=C(C)C(O)Cc1c(O)cc2oc3cc(O)c(O)c(CC=C(C)C)c3c(=O)c2c1O` (stereo not drawn) [bn-17, Bannaxanthone B], which “Percent Inhibition” value is on record?
**A.** 20%

test system: Panc 03.27; test: Cell panel screen (CellTiter-Glo); assay type: cell-based, human; details: Panc 03.27 (Pancreas), 20 micromolar, 72 hrs
How it was run: as §1

**Q.** With `C=C(C)C(O)Cc1c(O)cc2oc3cc(O)c(O)c(CC=C(C)C)c3c(=O)c2c1O` (stereo not drawn) [bn-17, Bannaxanthone B] as the compound, how does the “Percent Inhibition” value read?
**A.** 44%

test system: M059J; test: Cell panel screen (CellTiter-Glo); assay type: cell-based, human; details: M059J (Brain), 20 micromolar, 72 hrs
How it was run: as §1

**Q.** For `C=C(C)C(O)Cc1c(O)cc2oc3cc(O)c(O)c(CC=C(C)C)c3c(=O)c2c1O` (stereo not drawn) [bn-17, Bannaxanthone B], which “Percent Inhibition” value is on record?
**A.** 48%

test system: A498; test: Cell panel screen (CellTiter-Glo); assay type: cell-based, human; details: A498 (listed under Lung), 20 micromolar, 72 hrs
How it was run: as §1

**Q.** `C=C(C)C(O)Cc1c(O)cc2oc3cc(O)c(O)c(CC=C(C)C)c3c(=O)c2c1O` (stereo not drawn) [bn-17, Bannaxanthone B] was tested. Which “Percent Inhibition” value did it give?
**A.** 54%

test system: ChaGo-K-1; test: Cell panel screen (CellTiter-Glo); assay type: cell-based, human; details: ChaGo-K-1 (Lung), 20 micromolar, 72 hrs
How it was run: as §1

**Q.** Which “Percent Inhibition” value does the source give for `C=C(C)C(O)Cc1c(O)cc2oc3cc(O)c(O)c(CC=C(C)C)c3c(=O)c2c1O` (stereo not drawn) [bn-17, Bannaxanthone B] here?
**A.** 73%

test system: NCI-H1770; test: Cell panel screen (CellTiter-Glo); assay type: cell-based, human; details: NCI-H1770 (Lung), 20 micromolar, 72 hrs
How it was run: as §1

**Q.** For `C=C(C)C(O)Cc1c(O)cc2oc3cc(O)c(O)c(CC=C(C)C)c3c(=O)c2c1O` (stereo not drawn) [bn-17, Bannaxanthone B], which “Percent Inhibition” value is on record?
**A.** 12%

test system: T47D; test: Cell panel screen (CellTiter-Glo); assay type: cell-based, human; details: T47D (Breast), 20 micromolar, 72 hrs
How it was run: as §1

**Q.** How did the “Percent Inhibition” value turn out when `C=C(C)C(O)Cc1c(O)cc2oc3cc(O)c(O)c(CC=C(C)C)c3c(=O)c2c1O` (stereo not drawn) [bn-17, Bannaxanthone B] was run?
**A.** 45%

test system: A704; test: Cell panel screen (CellTiter-Glo); assay type: cell-based, human; details: A704 (Kidney), 20 micromolar, 72 hrs
How it was run: as §1

**Q.** Which “Percent Inhibition” value does the source give for `C=C(C)C(O)Cc1c(O)cc2oc3cc(O)c(O)c(CC=C(C)C)c3c(=O)c2c1O` (stereo not drawn) [bn-17, Bannaxanthone B] here?
**A.** 19%
